Common to all, as to experiment: NCI anticancer screen, dose series, 48 h
For experiment [1], the system named is KM20L2 colon.
Experiment [2] deals with HCT-116 colon.
The subject of experiment [3] is UACC-62 melanoma.
The subject of experiment [4] is HOP-62 NSCLC.
Experiment [5] relates to DMS 114 small cell lung.
The test system of experiment [6] is TK-10 renal.
Experiment [7] relates to HOP-18 NSCLC.
Experiment [8] relates to RXF 393 renal.
In experiment [9] the test system is LXFL 529 NSCLC.
Experiment [10] concerns SK-MEL-5 melanoma.
In experiment [11] the test system is DLD-1 colon.
In experiment [12] the test system is T-47D breast.

In PubChem BioAssay (NCI) one finds TGI and GI50 data, which are given here for 14 compounds.

Several values for one entry are separate records, joined by “and”; a condition that tells them apart may be missing. Equal values may be shown once.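 Compound exposure: 48 hours, 5 concentrations, 96-well plates. GI50 = concentration required for 50% inhibition of growth. TGI: concentration producing complete growth inhibition.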 Some results are limits rather than exact numbers.

Turning to `C=CCC(C)(C(=O)NCCC)C(=O)c1ccccc1O` (stereo not given), the TGI in experiment [1], in experiment [2], in experiment [3], in experiment [4], in [5] and in experiment [6] was more than 100 µM throughout. For the same compound, the TGI in experiment [7], in [8], in [9], in experiment [10] and in experiment [11] was more than 100 µM each time.

For `Cc1nn(C)c(=O)c2nn(-c3ccccc3)c(C)c12`, the TGI in [1], in [2], in experiment [3], in experiment [4], in experiment [5] and in experiment [6] was more than 100 µM in each case. The TGI in experiment [7], in experiment [8], in experiment [9], in experiment [10] and in experiment [11] was more than 100 µM throughout.

Take `O=C1CCC(=O)C12CCc1cccc(O)c12`: the TGI in [1], in experiment [3], in experiment [4], in [5], in experiment [6] and in [7] was more than 100 µM each time. In addition, the TGI in [8], in experiment [9] and in experiment [11] was more than 100 µM in each case.

As to `CC1=N/C(=C\c2cccc3ccccc23)C(=O)O1`, the TGI in experiment [1], in experiment [2], in experiment [3], in experiment [4], in experiment [5] and in [6] was more than 100 µM throughout. In addition, the TGI in experiment [7], in experiment [8], in [9], in experiment [10] and in [11] was more than 100 µM in each case.

In the case of `O=C1NC(=S)NC(=O)C1=Cc1ccc2ccccc2n1`, the TGI in experiment [1], in experiment [2], in experiment [3], in [4], in experiment [5] and in experiment [6] was more than 100 µM in each case. Further, the TGI in experiment [7], in experiment [8], in [9], in [10] and in experiment [11] was more than 100 µM in each case.

Consider `CC1=N/C(=C\c2ccc([N+](=O)[O-])cc2)C(=O)O1`, for which the TGI in experiment [1], in experiment [2], in [3], in [4], in experiment [5] and in experiment [6] was more than 100 µM in each case. Besides, the TGI in experiment [7], in experiment [8], in experiment [9], in experiment [10] and in experiment [11] was more than 100 µM in each case.

As to `COc1cccc2c1C(=O)c1c(O)c3c(c(O)c1C2=O)C[C@@](O)(/C(C)=N\O)C[C@@H]3OC1CC(N)C(O)C(C)O1` (stereo not given in full), the TGI in experiment [1] amounted to 30.9 µM; in experiment [2], 7.55 µM; in [3], 2.94 µM; in experiment [4], 6.46 µM; in experiment [5], 2.58 µM; in experiment [6], 37.2 µM. The TGI in experiment [7] was found to be 7.26 µM; in experiment [8], 4.76 µM; in experiment [9], 7.11 µM; in [10], 2.29 µM; in [12], 11 µM; in [11], 18.2 µM.

For the compound `CC(C)c1ccc(O)c(=O)cc1`, the TGI in experiment [1] is more than 100 µM; in experiment [2], 13.4 µM and 37.2 µM; in experiment [3], 21.8 µM; in [4], more than 100 µM; in experiment [5], 11.5 µM; in [6], more than 100 µM. The TGI in experiment [7] is more than 56.1 µM; in [8], more than 86.2 µM; in experiment [9] it was more than 100 µM; in [10] it was 35.2 µM and 41.4 µM; in [11], more than 100 µM. Besides, the GI50 is 3.92 µM in experiment [2]; 3.75 µM in experiment [4]; 39.7 µM in [6]; 11.1 µM in experiment [10]; 21 µM in [12].

Take `C=CCNC(=S)OCCCCCCCCCC`: the TGI in experiment [1] is 33.2 µM; in [2], 30.6 µM; in experiment [3], 30.2 µM; in [4] it was 36.3 µM; in [5], 32.1 µM; in [6] it was 24.1 µM. For the same compound, the TGI in experiment [7] was found to be 51.8 µM; in experiment [8], 29.1 µM; in experiment [9], 28.5 µM; in [10] it was 30.5 µM; in experiment [11], 30.7 µM.

Turning to `O=C(/C=C/c1ccc(Cl)cc1)c1ccncc1`, the TGI in experiment [1], in experiment [2], in [3], in [4], in experiment [5] and in experiment [6] was more than 100 µM throughout. The TGI is more than 100 µM in experiment [7]; 88.8 µM in experiment [8]; more than 100 µM in experiment [9]; more than 100 µM in experiment [10]; more than 100 µM in experiment [11].

Consider `Cc1nn(C)c(=S)n(C)c1=O`, for which the TGI was more than 100 µM in experiment [1]; 10.8 µM in [2]; more than 100 µM in [3]; 11.4 µM in [4]; 0.842 µM in experiment [5]; 26.2 µM in [6]. Besides, the TGI in experiment [7] was 4.89 µM; in [8], 7.33 µM; in experiment [9] it was 54.6 µM; in [11], more than 100 µM.

On to `CC1=C(c2cc(C(=O)Nc3cccc(C(F)(F)F)c3)nc(NC#N)n2)Sc2ccccc2N1`, for which the TGI in experiment [1], in experiment [2], in [3], in [4], in [5] and in [6] was more than 100 µM throughout. In addition, the TGI in experiment [7], in experiment [8], in experiment [9], in experiment [10] and in experiment [11] was more than 100 µM throughout.

For the compound `NC(=S)N/N=C(\C(=O)Nc1ccc(Cl)c(Cl)c1)C1=NN(c2ccccc2)C(c2cccc([N+](=O)[O-])c2)CC1=O` (stereo not given), the TGI in experiment [1] was 46.8 µM; in [2], 11.6 µM; in [3], more than 100 µM; in experiment [4], 84.2 µM; in experiment [5], 71.2 µM; in experiment [6], more than 100 µM. Moreover, the TGI is more than 100 µM in [7], 48.1 µM in experiment [9], more than 100 µM in experiment [10] and 47.5 µM in experiment [11].

As to `Cc1cccc(N2C(=O)C(=O)C(c3nc4ccccc4s3)C(=O)C2=O)c1C`, the TGI in [1], in [2], in [3], in experiment [4], in experiment [5] and in [6] was more than 100 µM in each case. Moreover, the TGI in experiment [7], in experiment [9], in experiment [10] and in [11] was more than 100 µM in each case.
